From ChEMBL document CHEMBL1268990, “Substituted pyrazoles as novel sEH antagonist: investigation of key binding interactions within the catalytic domain” (Bioorg Med Chem Lett, 2010)

Test system: Liver microsomes
Experiment: Metabolic stability in human liver microsomes
Format: ADME, Microsome

`O=C(Nc1ccc(-n2nc(-c3cccnc3)cc2C(F)(F)F)cn1)c1ccccc1` gave a Stability of 36%.
`O=C(Nc1ccc(-n2nc(-c3cccnc3)cc2C(F)(F)F)nn1)c1ccccc1` was tested, and the Stability was 31%.
